Tested on: B16 melanocytes
Test: Melanin (pigment) produced by B16 melanocytes in culture; culture media analyzed for pigment content after 5 days, pictures of culture plates
Assay type: cell-based
Conditions: for Percent Inhibition of Pigmentation in Melanocytes: 5 days
Experimental: The effect of peptide manganese complexes on pigmentation was determined by determining the amount of melanin produced by B16 melanocytes in culture. Various amounts of a representative peptide manganese complex (glycyl-L-histidyl-L-lysine:manganese) were added to the culture medium. After 5 days, the culture media was collected and analyzed for pigment content. In addition, pictures were taken of the culture plates.

Row | Compound | inhibition of pigment formation compared with GHK-Mn (200 ug/mi kojic acid vs 25 ug/ml GHK-Mn) | Percent Inhibition of Pigmentation in Melanocytes (0.1 ug/mL, Plate I) | Percent Inhibition of Pigmentation in Melanocytes (0.1 ug/mL, Plate II) | Percent Inhibition of Pigmentation in Melanocytes (1.0 ug/ml, Plate I) | Percent Inhibition of Pigmentation in Melanocytes (1.0 ug/ml, Plate II) | Percent Inhibition of Pigmentation in Melanocytes (10 ug/ml, Plate I) | Percent Inhibition of Pigmentation in Melanocytes (10 ug/ml, Plate II) | inhibition of pigment formation compared with kojic acid (25 ug/ml GHK-Mn vs 200 ug/mi kojic acid) | formation of pigment inhibited relative to the control (highest concentration tested) | formation of melanin pigments in cultured melanocytes (Table 4, FIG. 1) (various concentrations) | visual examination of culture flasks: secreted melanin (FIG. 2) (vs PBS control flask) | melanin in the cells, high magnification photograph (FIG. 3B) (vs control melanocyte culture (FIG. 3A))
1 | O=c1cc(CO)occ1O [kojic acid, 5-hydoxy-4-pyran-4-one-2-methyl, reference compound] | approximately equivalent |  |  |  |  |  |  |  |  |  |  | 
2 | glycyl-L-histidyl-L-lysine:manganese(II) [GHK-Mn] |  | 42% | 28% | 68% | 35% | 88% | 81% | approximately equivalent to that of 200 ug/mi of kojic acid | more than 80% | inhibited the formation of melanin pigments in cultured melanocytes in a dose responsive manner | contains relatively little melanin | containing much less melanin in the cells

Source: US20060018851A1, “Methods and compositions for preventing and treating hyperpigmentation of skin” (ProCyte Corporation, priority 2004, published 2006)
